Measured values reported in patent publication US7696129B2, “Substituted aromatic amide derivative, intermediate thereof, agrohorticultural insecticide containing thereof and method for the use thereof” (Nihon Nohyaku Co., Ltd., priority 2001, dated 2010).

Tests used:
Assay type in all cases: in vivo
[1] = test system: Diamond Back Moth (Plutella xylostella); experiment: Test Example 1: insecticidal effect on diamond back moth, immersion of Chinese cabbage seedling with eggs; details: 50 ppm, seedling with eggs immersed about 30 seconds, 25° C., six days after the immersion
From the text: Insecticidal Effect on Diamond Back Moth (Plutella xylostella)
Adult diamond back moths were released and allowed to oviposit on a Chinese cabbage seedling. Two days after the release, the seedling having the eggs deposited thereon was immersed for about 30 seconds in a liquid chemical prepared by diluting a preparation containing each compound listed in Tables 4 to 9 as an active ingredient to adjust the concentration to 50 ppm. After air-dryness, it was allowed to stand in a room thermostatted at 25° C. Six days after the immersion, the hatched insects were counted. The mortality was calculated according to the following equation and the insecticidal effect was judged according to the criterion shown below. The test was carried out with triplicate groups of 10 insects.

[2] = test system: Common Cutworm (Spodoptera litura); experiment: Test Example 2: insecticidal effect on common cutworm, cabbage leaf immersion; details: 50 ppm, cabbage leaf immersed about 30 seconds, second-instar larvae, 25° C., eight days after the inoculation
From the text: Insecticidal Effect on Common Cutworm (Spodoptera litura)
A piece of cabbage leaf (cultivar; Shikidori) was immersed for about 30 seconds in a liquid chemical prepared by diluting a preparation containing each compound listed in Tables 4 to 9 as an active ingredient to adjust the concentration to 50 ppm. After air-dryness, it was placed in a plastic Petri dish with a diameter of 9 cm and inoculated with second-instar larvae of common cutworm, after which the dish was closed and then allowed to stand in a room thermostatted at 25° C. Eight days after the inoculation, the dead and alive were counted. The mortality was calculated according to the following equation and the insecticidal effect was judged according to the criterion shown in Test Example 1. The test was carried out with triplicate groups of 10 insects.

[3] = test system: Smaller Tea Tortrix (Adxophyes sp.); experiment: Test Example 3: insecticidal effect on smaller tea tortrix, tea leaf immersion; details: 50 ppm, tea leaves immersed about 30 seconds, larvae, 25° C., humidity 70%, eight days after the inoculation
Description: Insecticidal Effect on Smaller Tea Tortrix (Adxophyes sp.)
Tea leaves were immersed for about 30 seconds in a liquid chemical prepared by diluting a preparation containing each compound listed in Tables 1 to 3 as an active ingredient to adjust the concentration to 50 ppm. After air-dryness, the tea leaves were placed in a plastic Petri dish with a diameter of 9 cm and inoculated with larvae of smaller tea tortrix, after which the dish was allowed to stand in a room thermostatted at 25° C. and having a humidity of 70%. Eight days after the inoculation, the dead and alive were counted and the insecticidal effect was judged according to the criterion shown in Test Example 1. The test was carried out with triplicate groups of 10 insects.

Row | SMILES | Test Example 1 (insecticidal effect, mortality criterion) [1] | Test Example 2 (insecticidal effect, mortality criterion) [2] | Test Example 3 (insecticidal effect, mortality criterion) [3]
1 | CSCC(C)(C)NC(=O)c1c(C(=O)Nc2ccc(C(C(F)(F)F)C(F)(F)F)cc2C)cccc1[N+](=O)[O-] [5-15] | A (Mortality 100%) | A (Mortality 100%) | A (Mortality 100%)
2 | CSCC(C)(C)NC(=O)c1c(F)cccc1C(=O)Nc1ccc(C(C(F)(F)F)C(F)(F)F)cc1C [5-16] | A (Mortality 100%) | A (Mortality 100%) | A (Mortality 100%)
3 | Cc1cc(C(C(F)(F)F)C(F)(F)F)ccc1NC(=O)c1cccc(Cl)c1C(=O)NC(C)C [5-17] | A (Mortality 100%) | A (Mortality 100%) | A (Mortality 100%)
4 | CON=CC(C)(C)NC(=O)c1c(Cl)cccc1C(=O)Nc1ccc(C(C(F)(F)F)C(F)(F)F)cc1C [5-18] | A (Mortality 100%) | A (Mortality 100%) | A (Mortality 100%)
5 | CSCC(C)(C)NC(=O)c1c(Cl)cccc1C(=O)Nc1ccc(C(C(F)(F)F)C(F)(F)F)cc1C [5-19] | A (Mortality 100%) | A (Mortality 100%) | A (Mortality 100%)
6 | CON=CC(C)(C)NC(=O)c1c(Br)cccc1C(=O)Nc1ccc(C(C(F)(F)F)C(F)(F)F)cc1C [5-20] | A (Mortality 100%) | A (Mortality 100%) | A (Mortality 100%)
7 | Cc1cc(C(C(F)(F)F)C(F)(F)F)ccc1NC(=O)c1cccc(I)c1C(=O)NC(C)C [5-21] | A (Mortality 100%) | A (Mortality 100%) | A (Mortality 100%)
8 | Cc1cc(C(C(F)(F)F)C(F)(F)F)ccc1NC(=O)c1cccc(I)c1C(=O)NC(C)(C)C [5-22] | A (Mortality 100%) | C (Mortality 89-80%) | A (Mortality 100%)
9 | C#CC(C)(C)NC(=O)c1c(I)cccc1C(=O)Nc1ccc(C(C(F)(F)F)C(F)(F)F)cc1C [5-24] | A (Mortality 100%) | C (Mortality 89-80%) | A (Mortality 100%)
10 | CCOC(=O)C=CC(C)(C)NC(=O)c1c(I)cccc1C(=O)Nc1ccc(C(C(F)(F)F)C(F)(F)F)cc1C [5-25] | A (Mortality 100%) | A (Mortality 100%) | A (Mortality 100%)
11 | CON=CC(C)(C)NC(=O)c1c(I)cccc1C(=O)Nc1ccc(C(C(F)(F)F)C(F)(F)F)cc1C [5-26] | A (Mortality 100%) | C (Mortality 89-80%) | A (Mortality 100%)
12 | Cc1cc(C(C(F)(F)F)C(F)(F)F)ccc1NC(=O)c1cccc(I)c1C(=O)NC(C)(C)CO [5-27] | A (Mortality 100%) | E (Mortality 49% or less) | E (Mortality 49% or less)
13 | Cc1cc(C(C(F)(F)F)C(F)(F)F)ccc1NC(=O)c1cccc(I)c1C(=O)NC(C)COC(=O)N(C)Cc1ccccc1 (stereo not drawn) [5-31] | A (Mortality 100%) | A (Mortality 100%) | A (Mortality 100%)
14 | CCNC(=O)OCC(C)NC(=O)c1c(I)cccc1C(=O)Nc1ccc(C(C(F)(F)F)C(F)(F)F)cc1C (stereo not drawn) [5-32] | A (Mortality 100%) | A (Mortality 100%) | A (Mortality 100%)
15 | Cc1cc(C(C(F)(F)F)C(F)(F)F)ccc1NC(=O)c1cccc(I)c1C(=O)NC(C)COC(=O)NCc1ccccc1 (stereo not drawn) [5-33] | A (Mortality 100%) | A (Mortality 100%) | A (Mortality 100%)
16 | Cc1ccccc1CNC(=O)OCC(C)NC(=O)c1c(I)cccc1C(=O)Nc1ccc(C(C(F)(F)F)C(F)(F)F)cc1C (stereo not drawn) [5-34] | A (Mortality 100%) | A (Mortality 100%) | A (Mortality 100%)
17 | Cc1cc(C(C(F)(F)F)C(F)(F)F)ccc1NC(=O)c1cccc(I)c1C(=O)NC(C)COC(=O)NCc1ccc(C(F)(F)F)cc1 (stereo not drawn) [5-35] | A (Mortality 100%) | A (Mortality 100%) | A (Mortality 100%)
18 | Cc1ccc(CNC(=O)OCC(C)NC(=O)c2c(I)cccc2C(=O)Nc2ccc(C(C(F)(F)F)C(F)(F)F)cc2C)cc1 (stereo not drawn) [5-36] | A (Mortality 100%) | E (Mortality 49% or less) | A (Mortality 100%)
19 | Cc1cc(C(C(F)(F)F)C(F)(F)F)ccc1NC(=O)c1cccc(I)c1C(=O)NC(C)COC(=O)NCc1ccc(Cl)cc1 (stereo not drawn) [5-37] | A (Mortality 100%) | A (Mortality 100%) | A (Mortality 100%)
20 | COc1ccc(CNC(=O)OCC(C)NC(=O)c2c(I)cccc2C(=O)Nc2ccc(C(C(F)(F)F)C(F)(F)F)cc2C)cc1 (stereo not drawn) [5-38] | A (Mortality 100%) | A (Mortality 100%) | A (Mortality 100%)
21 | CSCC(C)NC(=O)c1c(I)cccc1C(=O)Nc1ccc(C(C(F)(F)F)C(F)(F)F)cc1C (stereo not drawn) [5-39] | A (Mortality 100%) | A (Mortality 100%) | A (Mortality 100%)
22 | CC(=O)NCC(C)(C)NC(=O)c1c(I)cccc1C(=O)Nc1ccc(C(C(F)(F)F)C(F)(F)F)cc1C [5-40] | A (Mortality 100%) | A (Mortality 100%) | A (Mortality 100%)
23 | CSCC(C)(C)NC(=O)c1c(C(=O)Nc2ccc(C(C(F)(F)F)C(F)(F)F)cc2C)cccc1C(F)(F)F [5-41] | A (Mortality 100%) | A (Mortality 100%) | A (Mortality 100%)
24 | Cc1cc(C(C(F)(F)F)C(F)(F)F)ccc1NC(=O)c1cccc(C(F)(F)F)c1C(=O)NC(C)(C)C[S+](C)[O-] (stereo not drawn) [5-42] | A (Mortality 100%) | A (Mortality 100%) | A (Mortality 100%)
